We go through seven compounds from patent US5972946A, “Acetamide derivative, process for preparing the same, and a pharmaceutical composition containing the same” (Dainippon Pharmaceutical Co., Ltd., priority 1995, dated 1999).

Experiment [1] relates to Bacillus subtilis. Particulars: Pharmazie, 43, 537-538 (1988); cited from earlier work.
Experiment [2] is described as follows: Collagen-induced arthritis inhibitory test 2. Particulars: for effect on collagen-induced arthritis inhibitory test (conclusion): experiment 5, 10 mg/kg oral; for suppression of arthritis as compared with control: Example 165: at least until 34th day. It is filed as in vivo, mouse (DBA/1j, female). On the procedure: Experiment 5: Collagen-induced arthritis inhibitory test 2
Collagen-induced arthritis inhibitory test was carried out according to Kakimoto, K. et al. (cf. above reference of Kakimoto, K. et al.) with slight modification. Type II collagen from bovine joints (product of the Collagen Research Center, Japan) was emulsified in complete Freund's adjuvant (product of DIFCO Lab., U.S.A.). Female mice of DBA/1j strain (product of Nippon Charles River, Japan) were immunized by injection at the base of the tail with 150 μg of the emulsified collagen. After twenty one days from the immunization, arthritis was induced by a booster immunization of 150 μg of the emulsified collagen prepared in the same manner as above at the base of the tail again. Test compounds were administered orally at a dose of 10 mg/kg on 5 consecutive days in a week for 8 weeks, beginning from the day before the immunization. Mice were monitored visually for arthritis once a week beginning from the day of the booster immunization. The severity of arthritis was estimated by the sum of the scores of all 4 paws.

Experiment [3] deals with peripheral (ω3) benzodiazepine (BZ) receptor (Rattus norvegicus, UniProt P16257). The experiment in a line: BZω3 (peripheral-type) benzodiazepine receptor binding assay.
Procedure: Experiment 1: Central (ω1, ω2) and peripheral (ω3) benzodiazepine (BZ) receptor binding assays
BZω1 and BZω2 receptor binding assays were carried out according to the method of Stephens, D. N. et al. [cf.
Receptor membrane fractions for ω1, ω2 and ω3 were prepared from the cerebellum (ω1), spinal cord (ω1) or kidney (ω3) in 7-8 week old male rats of Wistar strain by the procedure described below.
After the cerebellum or spinal cord was homogenized with 20 volumes of ice-cold 50 mM Tris-citrate buffer (pH 7.1), the homogenate was centrifuged for 15 minutes at 40,000 g. The pellet obtained was washed 4 times by the same procedure, frozen and stored for 24 hours at -60° C. The resulting pellet, after being thawed, washed with the buffer and centrifuged, was suspended in the buffer I for the binding assay (50 mM Tris-HCl buffer containing 120 mM NaCl, 5 mM KCl, 2 mM CaCl2 and 1 mM MgCl2 ; pH 7.4) and the suspension thus obtained (containing 1 g wet tissue/40 ml) was used for the BZω1 and BZω2 receptor binding assays. On the other hand, the kidney was homogenized with 20 volumes of the ice-cold buffer II for the binding assay (50 mM Na--K phosphate buffer containing 100 mM NaCl; pH 7.4), filtered through 4 sheets of gauze, and centrifuged for 20 minutes at 40,000 g. The pellet obtained was suspended in the buffer II and the suspension (containing 1 g wet tissue/100 ml) was used for the binding assay as BZω3 receptor membrane source.
Flumazenil (final concentration: 0.3 nM for (ω1 and 1 nM for ω2) and flunitrazepam (final concentration: 10 μM) were used for the BZω1 or BZω2 receptor binding assays as the isotope-labeled and unlabeled ligands, respectively. For the BZω3 receptor binding assay, [^3 H] 4'-chlorodiazepam (7-chloro-1,3-dihydro-1-methyl-5-(4-chlorophenyl)-2H-1,4-benzodiazepin-2-one) (final concentration: 0.5 nM) and diazepam (final concentration: 100 μM) were used as the isotope-labeled and unlabeled ligands, respectively. Incubation was performed for 30 minutes at 37° C. in the BZω1 or BZω2 receptor binding assays, and for 150 minutes at 0° C. in the BZω3 receptor binding assay. The BZω1 or BZω2 receptor binding assays were carried out in the presence of bicuculline (final concentration: 100 μM).
The binding assay was performed by the following procedure. After adding each test compound at certain known concentrations, a [^3 H] ligand and the buffer I or II to each test tube, each assay was started by addition of membrane preparation (total volume of 1 ml). After incubation, the assay was terminated by filtration with suction through a Whatman GF/B glass fiber filter using a cell harvester (Brandel, USA). The filters were rapidly washed 3 times with 5 ml of ice-cold 50 mM Tris-HCl buffer (pH 7.7) for ω1 and ω2, or the buffer II forω3, and transferred to scintillation vials containing 10 ml liquid scintillation cocktail (ACS-II, Amersham, USA). After a few hours, retained radioactivity was counted by a liquid scintillation spectrometer. Specific binding of [^3 H] ligands was calculated as the difference between amounts of radioactivity bound in the presence and absence of excess unlabeled ligands.
A short description of experiment [4]: Light and dark box test (anti-anxiety effect). It is filed as in vivo, mouse (Std-ddY, male). Particulars: Mus musculus, 0.5 h; oral, 30 min before test; mice; p<0.05 vs vehicle; read-out: Anti-anxiety effect MED (minimum effective dose). From the text: Experiment 2: Light and dark box test (anti-anxiety effect)
Anti-anxiety effect of test compounds was examined in a box with light and dark compartments according to the method of Crawley, J. and Goodwin, F. K. [cf. Pharmacol. Biochem. Behav. 13, 167-170 (1980)] with slight modification.
Light and dark box test is a useful, simple and handy method for behaviorally and pharmacologically examining anti-anxiety effect of the drugs, by utilizing the habit of rodents such as mice and rats, etc. which prefer to stay in a dark place, and regarding as positive drug effect the increase of the relative stay of the animals in the light compartment which is an uncomfortable place for the animals.
Light and dark box test was carried out using the test box device (35×15×17 cm) which comprises: a light compartment (20×15×17 cm) consisting of transparent acrylic plates and highly illuminated by an incandescent lamp (1,700 lux); a dark compartment (15×15×17 cm) being made of black acrylic plates connected to the light compartment; and at the boundary of compartments, an opening (4.4×5 cm) in which mice can go through freely between two compartments.
Male mice of Std-ddY strain weighing 25-30 g were used in a group of 10. Each trial was started by placing a mouse in the center of the light compartment 30 minutes after oral administration of a test compound, and the time spent by the mouse in the light compartment during a 5 minute observation period was measured, and the rate of the stay of mice in the light compartment to the whole time spent in the experiment was calculated. The increasing rate of the relative stay of the test compound to that of the vehicle control group was yielded, based on the rate of the stay of mice in the light compartment.
The anti-anxiety effect of the test compound was represented by the minimum effectivetive dose (MED) at which the increasing rate of the relative stay was regarded statistically as significant (Williams-Wilcoxon's test, p<0.05).

For experiment [5] the following is noted: known from literature; cited from earlier work.

As for `CC(=O)c1c(C)nc(-c2ccccc2)nc1SCC(=O)Nc1ccc(Cl)cc1` [2-(5-acetyl-6-methyl-2-phenyl-4-pyrimidinylthio)-N-(4-chlorophenyl)acetamide], in experiment [1], the “antibacterial activity against Bacillus subtilis” value is listed as “shows antibacterial activity against Bacillus subtilis”.

Regarding `CCCN(CCC)C(=O)CNc1nc(-c2ccc(C(F)(F)F)cc2)nc(C)c1C` [Example 6, 2-[5,6-Dimethyl-2-(4-trifluoromethylphenyl)-4-pyrimidinylamino]-N,N-dipropylacetamide], in experiment [2] (10 mg/kg oral, 5 consecutive days a week for 8 weeks), the “onset of arthritis delayed until (days after the booster immunization)” value is recorded as 21 days. In addition, in experiment [2] (10 mg/kg oral, 5 days a week, at least until day 34, last day of the experiment), the “severity of arthritis versus control group” value was “much lower than the control group”. The “effect on collagen-induced arthritis inhibitory test (conclusion)” value in experiment [2] is on record as “potent effect”. In addition, the half-maximal inhibitory concentration (IC50) in experiment [3] is 0.23 nM. Moreover, the minimal effective dose in experiment [4] stood at 0.3 mg/kg.

For the compound `CCN(C(=O)COc1nc(-c2ccc(N)cc2)nc(C)c1C)c1ccccc1` [Example 165, 2-[2-(4-aminophenyl)-5,6-dimethyl-4-pyrimidinyloxy]-N-ethyl-N-phenylacetamide], the “suppression of arthritis as compared with control” value in experiment [2] (10 mg/kg oral, 5 days a week) is given as “markedly suppressed the arthritis as compared with control group”. Further, the “effect on collagen-induced arthritis inhibitory test (conclusion)” value in experiment [2] was “potent effect”. In experiment [3], this compound returned an IC50 of 5.07 nM.

For `CCCN(C(=O)COc1nc(-c2ccccc2)nc(C)c1C)c1ccccc1` [Example 178, 2-(5,6-Dimethyl-2-phenyl-4-pyrimidinyloxy)-N-phenyl-N-propylacetamide], the “suppression of arthritis as compared with control” value in experiment [2] (10 mg/kg oral, 5 days a week) was “the arthritis was suppressed as compared with the control”. The “effect on collagen-induced arthritis inhibitory test (conclusion)” value in experiment [2] was “less potent effect”. In addition, the half-inhibitory concentration (IC50) in experiment [3] was 0.57 nM.

Turning to `C[C@]12CC[C@@H](O)C[C@@H]1CC[C@@H]1[C@@H]2CC[C@]2(C)[C@@H](C(=O)CO)CC[C@@H]12` [THDOC, allotetrahydrodeoxycorticosterone], in experiment [5], the “effect in isoniazid-induced clonic convulsion test (known drugs)” value (from here on “effect … (known drugs)”) was “positive effect”.

Consider `CC(=O)[C@H]1CC[C@H]2[C@@H]3CC[C@H]4C[C@H](O)CC[C@]4(C)[C@H]3CC[C@]12C` [allopregnanolone], for which the “effect … (known drugs)” value in experiment [5] is listed as “positive effect”.

On to `CN1C(=O)CN=C(c2ccccc2)c2cc(Cl)ccc21` [diazepam], for which the “effect … (known drugs)” value in experiment [5] was “positive effect”.
